In paper PMC10584170, “Machine learning-based phenotypic imaging to characterise the targetable biology of Plasmodium falciparum male gametocytes for the development of transmission-blocking antimalarials” (PLOS Pathogens, 2023):

Legend:
[1] = test system: P. falciparum male gametocytes; assay: P. falciparum Dual Gamete Formation Assay (PfDGFA), male readout (exflagellation); format: cell-based, Plasmodium falciparum NF54; conditions: for Average inhibition male (%): average of replicates; for % inhibition male (individual replicates) R1: replicate R1; for % inhibition male (individual replicates) R3: replicate R3; for % inhibition male (individual replicates) R4: replicate R4; for Activity: hit = >50% inhibition in male or female readout in at least 3 replicates, 0 = no class assigned
Method: (§1) P. falciparum NF54 (originally isolated from an imported malaria case in the Netherlands in the 1980s; BEI Resources, cat. No. MRA-1000) strain asexual parasites were maintained between 0.3–5% parasitaemia by regular passage in complete culture medium (RPMI supplemented with 25 mM HEPES, 50 μg ml^−1 hypoxanthine, 4.8 g l^−1 NaHCO3, 2mM L-glutamine, 5% pooled type AB serum, 0.5% Albumax II (Gibco)) at 4% haematocrit in washed whole blood (National Blood and Transfusion Service or Centro de Transfusiones de la Comunidad de Madrid CTCM) under a 1% O2/3% CO2/96% N2 environment. Gametocytes were induced by seeding culture flasks at 2% parasitaemia/4% haematocrit and subjecting them to daily medium changes for 14 days whilst maintaining a temperature of 37°C at all times. On Day 14, the maturity of gametocytes was assessed by quantifying male gametogenesis (exflagellation). A 20 μl sample of gametocyte culture was mixed with equal volume of ookinete medium (complete culture medium supplemented with 0.1 μM xanthurenic acid) at room temperature and transferred to a haemocytometer. After 20 min at room temperature, exflagellation was accurately quantified as described in Delves et al. 2016 [17].
(§2) The Pf DGFA was performed as described in Delves et al. 2016 [17]. […] Plates were then incubated for 24 h at 37°C in a humidified box under a 1% O2/3% CO2/96% N2 gas mix. Gametogenesis was triggered by addition of 10 μl per well of ookinete medium + 0.27 μg ml^-1 Cy3-labelled anti-Pfs25 antibody. Plates were incubated on a metal block at 4°C for 4 min to ensure even cooling, then 28°C for a further 4 min. Exflagellation was recorded by capturing 10 frames over 1 s under brightfield illumination using a x4 objective with a 1.5x zoom (effectively x6) attached to an automated Nikon Ti fluorescence microscope. After recording exflagellation, plates were incubated for a further 24 h in the dark at 28°C to ensure maximal expression of Pfs25 by female gametes. The plates were then returned to the microscope and female gametes imaged at x6 using fluorescence microscopy.
(§3) Exflagellation centres and female gametes were quantified using custom image analysis pipelines developed within ICY Bioimage Analysis (https://icy.bioimageanalysis.org/).

[2] = test system: P. falciparum female gametocytes; assay: P. falciparum Dual Gamete Formation Assay (PfDGFA), female readout (Pfs25-positive female gametes); format: cell-based, Plasmodium falciparum NF54; conditions: for Average inhibition female (%): average of replicates; for % inhibition female (individual replicates) R1: replicate R1; for % inhibition female (individual replicates) R3: replicate R3; for % inhibition female (individual replicates) R4: replicate R4
Method: as §1, §2, §3

[3] = 2µM, 24h preincubation with gametocytes prior to induction of gametogenesis
[4] = 2µM, 24h preincubation, number of replicates with >50% inhibition in the male readout
[5] = 2µM, 24h preincubation, number of replicates with >50% inhibition in the female readout
[6] = PfDGFA at 2µM, 24h preincubation with gametocytes
[7] = 2µM, 24h preincubation, hits selected on >50% inhibition in the male readout across replicates
[8] = PfDGFA at 2µM, 24h preincubation
[9] = 2µM, 24h preincubation, hits selected on >50% inhibition in the female readout across replicates
[10] = PfDGFA at 2µM, 24h preincubation with gametocytes prior to induction of gametogenesis

SMILES	Average inhibition male (%) [1, 3] [%]	% inhibition male (individual replicates) R1 [1, 3] [%]	% inhibition male (individual replicates) R3 [1, 3] [%]	% inhibition male (individual replicates) R4 [1, 3] [%]	HitlevelM [1, 4]	Average inhibition female (%) [2, 3] [%]	% inhibition female (individual replicates) R1 [2, 3] [%]	% inhibition female (individual replicates) R3 [2, 3] [%]	% inhibition female (individual replicates) R4 [2, 3] [%]	HitlevelF [2, 5]	further results
CCc1c(CCNCCCCCCNCCc2ccc(OC)c(OC)c2CC)ccc(OC)c1OC.Cl [TCMDC-132047]	61.2	56.6	45.7	80.2	3	17.9	11.5	7.6	17.6	0	–
CCc1c(CCNCCCCCCNC(C)Cc2ccc3c(c2CC)OCO3)ccc(OC)c1OC.Cl (stereo not shown) [TCMDC-132052]	–	–	–	–	–	–	–	–	–	–	Average inhibition male (%) [1, 6]: 79.1%; % inhibition male (individual replicates) R1 [1, 6]: 84.5%; % inhibition male (individual replicates) R3 [1, 6]: 62.9%; % inhibition male (individual replicates) R4 [1, 6]: 90.9%; HitlevelM ([1]; number of replicates with >50% inhibition in the male readout, 2µM): 4; Average inhibition female (%) [2, 6]: 26.4%; % inhibition female (individual replicates) R1 [2, 6]: 34.8%; % inhibition female (individual replicates) R3 [2, 6]: 2.4%; % inhibition female (individual replicates) R4 [2, 6]: 23.2%; HitlevelF ([2]; number of replicates with >50% inhibition in the female readout, 2µM): 0
CCc1c(CCNCCCCCCNCCc2ccc([N+](=O)[O-])cc2)ccc(OC)c1OC.Cl [TCMDC-132066]	38.6	42.7	1.6	56.2	2	24.7	23.1	5.5	16.3	1	–
CCc1c(CCNCCCCCCNCc2ccc3c(c2CC)OCO3)ccc(OC)c1OC.Cl [TCMDC-132068]	39.4	42.2	19.5	56.9	–	13.2	18.0	-2.7	25.3	–	HitlevelM [1, 7]: 1; Activity [1, 8]: 0; HitlevelF [2, 9]: 0
COc1cc2c(c(Cl)c1OC)CCN(C(=O)C(F)(F)F)CC2c1ccccc1 (stereo not shown) [TCMDC-132071]	–	–	–	–	–	–	–	–	–	–	% inhibition male (individual replicates) R1 [1, 10]: 5.3%; % inhibition male (individual replicates) R3 [1, 10]: 19.8%; % inhibition male (individual replicates) R4 [1, 10]: -8.3%; Average inhibition male (%) [1, 8]: 3.7%; % inhibition female (individual replicates) R1 [2, 10]: 4.5%; % inhibition female (individual replicates) R3 [2, 10]: -4.3%; % inhibition female (individual replicates) R4 [2, 10]: 10.0%; Average inhibition female (%) [2, 8]: 2.1%
CCc1c(CCNCCCCCCNCCc2ccc3c(c2C)OCO3)ccc2c1OCO2.Cl [TCMDC-132093]	59.8	52.8	37.9	88.2	3	43.6	28.1	50.1	47.8	1	–
COc1ccc(-c2nc3c(N)nc(N)nc3nc2C(C)C)cc1 [TCMDC-132109]	-8.8	-5.9	-23.4	-14.5	–	17.4	48.8	-20.3	37.3	–	HitlevelM [1, 7]: 0; Activity [1, 8]: 0; HitlevelF [2, 9]: 0
Cl.N#Cc1c(F)cc(N2CCC(NCC[C@H](N)Cc3ccc(F)c(F)c3)CC2)cc1F [TCMDC-132121]	31.7	33.4	31.1	56.8	1	20.0	13.8	22.9	12.3	0	–
O=C(O)C(F)(F)F.O=S(=O)(NCCN1CCCC1)c1ccc(-c2cccc(CNC3Cc4ccccc4C3)c2)s1 [TCMDC-132217]	13.9	10.5	7.6	38.2	0	35.5	25.9	15.7	46.4	1	–
O=C(O)C(F)(F)F.O=S(=O)(NCCN1CCCC1)c1ccc(-c2cccc(CNC3Cc4ccccc4C3)c2)cc1F [TCMDC-132221]	11.1	3.1	–	19.5	0	29.0	30.1	27.5	20.7	0	–
COc1ccc(CNCc2ccc(F)cc2)cc1-c1cccc(S(=O)(=O)NCCN2CCCC2)c1.O=C(O)C(F)(F)F [TCMDC-132223]	-1.9	-0.6	2.2	-9.8	0	23.7	23.5	4.6	54.2	1	–
CN1CCC(NCc2ccc(-c3ccc(S(=O)(=O)NCc4ccccc4)cc3)cc2)CC1.O=C(O)C(F)(F)F [TCMDC-132227]	43.4	32.1	–	43.3	1	19.1	9.9	31.6	17.4	0	–
O=C(O)C(F)(F)F.O=S(=O)(NCCN1CCCC1)c1ccc(-c2ccc(CNC3Cc4ccccc4C3)cc2)cc1 [TCMDC-132229]	10.7	12.4	8.7	9.5	0	26.6	21.5	7.4	45.3	0	–
CN1CCC(NCc2ccc(-c3ccc(S(=O)(=O)NCc4ccccc4)s3)cc2)CC1.O=C(O)C(F)(F)F [TCMDC-132231]	34.4	32.6	–	32.4	–	9.7	17.2	1.4	10.3	–	HitlevelM [1, 7]: 0; Activity [1, 8]: 0; HitlevelF [2, 9]: 0
O=C(O)C(F)(F)F.O=S(=O)(NCCN1CCCC1)c1ccc(-c2ccc(CNC3Cc4ccccc4C3)cc2)s1 [TCMDC-132234]	17.3	15.3	1.0	34.9	0	29.4	25.4	5.2	45.9	0	–
